# Source: BindingDB's records for doi:10.1016/j.bmcl.2010.06.084 (Phenex Pharmaceuticals, 2010)
# Molecular target: T1, Nuclear receptor subfamily 1 group I member 2 (Homo sapiens, UniProt O75469)
# T1 sequence (O75469 whole entry): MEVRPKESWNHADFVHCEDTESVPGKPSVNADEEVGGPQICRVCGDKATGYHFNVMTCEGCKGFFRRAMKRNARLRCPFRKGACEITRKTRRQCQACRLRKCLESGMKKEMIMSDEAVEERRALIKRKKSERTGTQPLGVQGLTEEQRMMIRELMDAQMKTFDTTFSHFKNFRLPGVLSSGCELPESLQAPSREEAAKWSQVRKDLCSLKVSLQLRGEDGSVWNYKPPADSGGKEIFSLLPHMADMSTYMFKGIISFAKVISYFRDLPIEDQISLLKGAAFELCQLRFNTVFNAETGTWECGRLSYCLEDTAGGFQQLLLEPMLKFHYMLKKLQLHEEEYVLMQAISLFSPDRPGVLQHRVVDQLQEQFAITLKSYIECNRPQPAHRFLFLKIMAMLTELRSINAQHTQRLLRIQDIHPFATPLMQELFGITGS
# Assay: Agonist activity at PXR-LBD expressed in HEK293 cells assessed as Gal4-DBD interaction by cellular mammalian one hybrid assay
row,EC50,Structure (SMILES)
1,> 1280 nM,"CC(C)c1onc(-c2c(Cl)cccc2Cl)c1COc1ccc(N(C)Cc2ccc(C(=O)O)cc2)c(C(F)(F)F)n1 [4-(((6-((3-(2,6-dichlorophenyl)-5-isopropylisoxazol-4-yl)methoxy)-2-(trifluoromethyl)pyridin-3-yl)(methyl)amino)methyl)benzoic acid]"
2,3870 nM,"CN(Cc1ccc(C(=O)O)cc1)c1ccc(OCc2c(-c3c(Cl)cccc3Cl)noc2C2CC2)nc1C(F)(F)F [4-(((6-((5-cyclopropyl-3-(2,6-dichlorophenyl)isoxazol-4-yl)methoxy)-2-(trifluoromethyl)pyridin-3-yl)(methyl)amino)methyl)benzoic acid]"
3,390 nM,"CN(Cc1cccc(C(=O)O)c1)c1ccc(OCc2c(-c3c(Cl)cccc3Cl)noc2C2CC2)nc1C(F)(F)F [3-(((6-((5-cyclopropyl-3-(2,6-dichlorophenyl)isoxazol-4-yl)methoxy)-2-(trifluoromethyl)pyridin-3-yl)(methyl)amino)methyl)benzoic acid]"
